According to ChEMBL document CHEMBL2029247, “Synthesis and structure-activity relationship of aminopyridines with substituted benzoxazoles as c-Met kinase inhibitors” (Bioorg Med Chem Lett, 2012):

Legend:
[1] = biological target: Hepatocyte growth factor receptor (Homo sapiens, UniProt P08581); assay: Inhibition of recombinant c-Met by time resolved-fluorescence resonance energy transfer analysis
cells = settings: Homo sapiens, Hs746T, 72 h
Description: Cytotoxicity against human Hs 746T cells after 72 hrs by WST-8 assay

[2] = biological target: T1, Receptor-type tyrosine-protein kinase FLT3 (Homo sapiens, UniProt P36888); assay: Inhibition of recombinant FLT3 by time resolved-fluorescence resonance energy transfer analysis
T1 sequence (P36888 whole entry): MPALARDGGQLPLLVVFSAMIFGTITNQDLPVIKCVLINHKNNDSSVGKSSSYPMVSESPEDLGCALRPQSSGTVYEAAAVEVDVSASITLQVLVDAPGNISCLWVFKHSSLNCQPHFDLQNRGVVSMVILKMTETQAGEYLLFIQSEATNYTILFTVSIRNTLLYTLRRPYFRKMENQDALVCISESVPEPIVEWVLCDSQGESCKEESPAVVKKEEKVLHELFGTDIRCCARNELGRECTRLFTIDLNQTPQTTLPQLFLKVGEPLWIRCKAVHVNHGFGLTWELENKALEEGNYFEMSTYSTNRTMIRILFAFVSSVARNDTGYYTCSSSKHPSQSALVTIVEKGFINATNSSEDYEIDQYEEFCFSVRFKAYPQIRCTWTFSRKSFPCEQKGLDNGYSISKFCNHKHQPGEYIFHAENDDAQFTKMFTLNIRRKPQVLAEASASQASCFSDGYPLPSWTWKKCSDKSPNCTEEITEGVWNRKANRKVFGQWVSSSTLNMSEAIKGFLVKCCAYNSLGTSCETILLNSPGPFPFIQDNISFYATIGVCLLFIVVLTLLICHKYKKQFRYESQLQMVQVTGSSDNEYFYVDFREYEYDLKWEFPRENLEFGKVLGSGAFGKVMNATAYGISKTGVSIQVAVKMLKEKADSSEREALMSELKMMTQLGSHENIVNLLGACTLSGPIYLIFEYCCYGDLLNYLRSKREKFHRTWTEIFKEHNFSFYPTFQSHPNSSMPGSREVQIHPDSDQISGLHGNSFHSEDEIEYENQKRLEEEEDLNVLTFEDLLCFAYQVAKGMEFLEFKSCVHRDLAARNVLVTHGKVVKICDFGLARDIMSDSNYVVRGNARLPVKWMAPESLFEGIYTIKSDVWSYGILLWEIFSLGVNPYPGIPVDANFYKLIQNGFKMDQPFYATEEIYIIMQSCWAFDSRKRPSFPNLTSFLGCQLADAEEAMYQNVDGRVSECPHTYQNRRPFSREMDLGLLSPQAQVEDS

[3] = biological target: Receptor-type tyrosine-protein kinase FLT3 (Homo sapiens, UniProt P36888, D835Y); assay: Inhibition of FLT3 D835Y mutant
Aurora kinase A = biological target: T2, Aurora kinase A (Homo sapiens, UniProt O14965); assay: Inhibition of Aurora A
T2 sequence (O14965 whole entry): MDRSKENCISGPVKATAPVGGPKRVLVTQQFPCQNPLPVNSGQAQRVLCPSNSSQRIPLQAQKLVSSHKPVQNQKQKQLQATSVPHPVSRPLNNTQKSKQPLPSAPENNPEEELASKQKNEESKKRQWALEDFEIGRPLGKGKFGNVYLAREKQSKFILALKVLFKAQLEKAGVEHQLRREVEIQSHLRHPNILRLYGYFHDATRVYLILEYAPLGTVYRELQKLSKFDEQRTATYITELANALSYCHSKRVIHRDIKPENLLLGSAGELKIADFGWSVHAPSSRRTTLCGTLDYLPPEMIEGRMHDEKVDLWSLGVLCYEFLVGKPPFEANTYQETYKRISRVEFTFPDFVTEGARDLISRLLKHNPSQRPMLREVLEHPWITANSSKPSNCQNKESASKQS

[4] = biological target: Macrophage-stimulating protein receptor (Homo sapiens, UniProt Q04912); assay: Inhibition of Ron

Row | Compound | IC50 [1] [nM] | other results
1 | Nc1ncc(-c2cnn(C3CCNCC3)c2)cc1-c1nc2cc(Cl)ccc2o1 | 53 | –
2 | Nc1ncc(-c2cnn(C3CCNCC3)c2)cc1-c1nc2cc(Cl)cc(F)c2o1 | 41 | –
3 | CC(=O)c1ccc2nc(-c3cc(-c4cnn(C5CCNCC5)c4)cnc3N)oc2c1 | 800 | –
4 | CC(O)c1ccc2nc(-c3cc(-c4cnn(C5CCNCC5)c4)cnc3N)oc2c1 (stereo not drawn) | 130 | –
5 | Nc1ncc(-c2cnn(C3CCNCC3)c2)cc1-c1nc2ccc(-c3cccnc3)cc2o1 | 28 | –
6 | Nc1ncc(-c2cnn(C3CCNCC3)c2)cc1-c1nc2ccc(-c3cc[nH]n3)cc2o1 | 210 | –
7 | Nc1ncc(-c2cnn(C3CCNCC3)c2)cc1-c1nc2cccc(-c3ccccn3)c2o1 | – | IC50 (cells): 240 nM
8 | COc1ccc(-c2cccc3nc(-c4cc(-c5cnn(C6CCNCC6)c5)cnc4N)oc23)cc1 | 77 | –
9 | CC(C)Nc1cccc2nc(-c3cc(-c4cnn(C5CCNCC5)c4)cnc3N)oc12 | 130 | –
10 | CNc1ccc2oc(-c3cc(-c4cnn(C5CCNCC5)c4)cnc3N)nc2c1 | 160 | –
11 | CC(=O)Nc1ccc2oc(-c3cc(-c4cnn(C5CCNCC5)c4)cnc3N)nc2c1 [listing 1 of 2 here] | 540 | –
12 | CCCNc1ccc2nc(-c3cc(-c4cnn(C5CCNCC5)c4)cnc3N)oc2c1 | 150 | –
13 | Nc1ncc(-c2cnn(C3CCNCC3)c2)cc1-c1nc2ccc(Nc3ncccn3)cc2o1 | 63 | –
14 | Nc1ncc(-c2cnn(C3CCNCC3)c2)cc1-c1nc2ccc(Oc3ccncn3)cc2o1 | 34 | –
15 | Nc1ncc(-c2cnn(C3CCNCC3)c2)cc1-c1nc2ccc(Oc3ncccn3)cc2o1 | 23 | –
16 | Nc1ncc(-c2cnn(C3CCNCC3)c2)cc1-c1nc2cc(O)ccc2o1 | 22 | –
17 | Nc1ncc(-c2cnn(C3CCNCC3)c2)cc1-c1nc2ccc(O)cc2o1 | 19 | IC50 [2]: 4 nM; IC50 (cells): 450 nM; IC50 [3]: 0.3 nM; IC50 (Aurora kinase A): 90 nM; IC50 [4]: 14 nM
18 | Nc1ncc(-c2cnn(C3CCNCC3)c2)cc1-c1nc2cccc(O)c2o1 | 110 | –
19 | Cc1cc2oc(-c3cc(-c4cnn(C5CCNCC5)c4)cnc3N)nc2cc1O | – | IC50 (cells): 12 nM
20 | Cc1cc2oc(-c3cc(-c4cnn(C5CCNCC5)c4)cnc3N)nc2c(C)c1O | 3 | –
21 | CCc1cc2oc(-c3cc(-c4cnn(C5CCNCC5)c4)cnc3N)nc2cc1O | – | IC50 (cells): 22 nM

Row | Compound | IC50 [1] [nM] | other results
22 | Cc1cc2nc(-c3cc(-c4cnn(C5CCNCC5)c4)cnc3N)oc2cc1O | 180 | –
23 | Cc1c(O)ccc2nc(-c3cc(-c4cnn(C5CCNCC5)c4)cnc3N)oc12 | 0.2 | IC50 [2]: 34 nM; IC50 (cells): 35 nM
24 | Nc1ncc(-c2cnn(C3CCNCC3)c2)cc1-c1nc2ccc(O)c(-c3cccnc3)c2o1 | 4 | –
25 | Nc1ncc(-c2cnn(C3CCNCC3)c2)cc1-c1nc2ccc(O)c(-c3cnccn3)c2o1 | – | IC50 (cells): 180 nM
26 | Nc1ncc(-c2cnn(C3CCNCC3)c2)cc1-c1nc2ccc(O)c(-c3ccccc3)c2o1 | 48 | IC50 [2]: 14 nM; IC50 (cells): 10 nM
27 | Nc1ccc2oc(-c3cc(-c4cnn(C5CCNCC5)c4)cnc3N)nc2c1 | 56 | –
28 | Nc1ccc2nc(-c3cc(-c4cnn(C5CCNCC5)c4)cnc3N)oc2c1 | 14 | IC50 [2]: 3.6 nM; IC50 (cells): 3700 nM
29 | Nc1ncc(-c2cnn(C3CCNCC3)c2)cc1-c1nc2ccc(NC(=O)Nc3ccccc3)cc2o1 | 130 | –
30 | CS(=O)(=O)Nc1ccc2nc(-c3cc(-c4cnn(C5CCNCC5)c4)cnc3N)oc2c1 | 88 | –
31 | Nc1ncc(-c2cnn(C3CCNCC3)c2)cc1-c1nc2ccc(NS(=O)(=O)c3ccc(F)cc3)cc2o1 | 67 | –
32 | Nc1ncc(-c2cnn(C3CCNCC3)c2)cc1-c1nc2ccc(Nc3ccc(F)cc3)cc2o1 | 410 | –
33 | Cc1ccc(S(=O)(=O)NC(=O)Nc2ccc3nc(-c4cc(-c5cnn(C6CCNCC6)c5)cnc4N)oc3c2)cc1 | 45 | –
34 | Cn1cc(-c2cnc(N)c(-c3nc4ccc(Cl)cc4o3)c2)cn1 | 1700 | –
35 | CN1CCC(n2cc(-c3cnc(N)c(-c4nc5ccc(F)cc5o4)c3)cn2)CC1 | 240 | –
36 | Nc1ncc(-c2cnn(C3CCN(CCO)CC3)c2)cc1-c1nc2ccc(F)cc2o1 | 90 | –
37 | CC(=O)N1CCC(n2cc(-c3cnc(N)c(-c4nc5ccc(Cl)cc5o4)c3)cn2)CC1 | 220 | –
38 | CC(=O)N1CCC(n2cc(-c3cnc(N)c(-c4nc5cc(O)c(C)cc5o4)c3)cn2)CC1 | 51 | –
39 | CC(=O)N1CCC(n2cc(-c3cnc(N)c(-c4nc5c(C)c(O)c(C)cc5o4)c3)cn2)CC1 | 28 | –
40 | Nc1ncc(-c2cnn(CCO)c2)cc1-c1nc2cccc(-c3ccccn3)c2o1 | 53 | –
41 | Cn1cc(-c2cnc(N)c(-c3nc4cccc(-c5ccccn5)c4o3)c2)cn1 | 14 | –
42 | CC(=O)Nc1ccc2oc(-c3cc(-c4cnn(C5CCNCC5)c4)cnc3N)nc2c1 [listing 2 of 2 here] | 540 | –
